Among the data in PubChem BioAssay (NCI) are TGI and GI50 values, retold here.

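Method: 48-hour compound exposure of cells in 96-well plates, five concentrations, linear interpolation of endpoints. Abbreviation: GI50, concentration required for 50% inhibition of growth. TGI: total growth inhibition.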 Where only a bound is given, the exact number is not on record here.

Test systems include CAKI-1 renal; OVCAR-3 ovarian; SK-MEL-28 melanoma; UACC-62 melanoma; HL-60(TB) leukemia; COLO 205 colon; UO-31 renal; MDA-MB-231 breast; NCI/ADR-RES ovarian; MDA-MB-435.
Common to all, as to assay: growth of human tumour cells (NCI), 48 h

On to `CC12CC(Sc3ccccc3N1)c1ccccc1O2` (stereo not drawn), for which the TGI in the assay with CAKI-1 renal came to 42.4 µM; with OVCAR-3 ovarian, 30.3 µM; with SK-MEL-28 melanoma it was 30.4 µM; in the assay on UACC-62 melanoma, 30.7 µM; in the assay on HL-60(TB) leukemia, 28.8 µM; with COLO 205 colon, 29.9 µM. In the assay on UO-31 renal, this compound yielded a TGI of 27.4 µM.
Consider `COc1ccc(/C(=N/O)c2cc(OC)c(OC)c(OC)c2)c(OC)c1N`, for which the GI50 was 5.53 µM with CAKI-1 renal; > 100 µM with SK-MEL-28 melanoma; 3380 nM with HL-60(TB) leukemia; 3 µM in the assay on COLO 205 colon; 5.45 µM in the assay with UO-31 renal; 5.36 µM in the assay with MDA-MB-231 breast. For the same compound, the TGI is > 100 µM with CAKI-1 renal; > 100 µM in the assay on SK-MEL-28 melanoma; 14.3 µM in the assay with HL-60(TB) leukemia; 13.5 µM with COLO 205 colon; > 100 µM in the assay on UO-31 renal; > 100 µM with MDA-MB-231 breast.
In the case of `C#CC(=O)OCC#CCOC(=O)C#C`, the TGI in the assay on NCI/ADR-RES ovarian was 76.5 µM; in the assay with CAKI-1 renal, 39.1 µM; in the assay on MDA-MB-435, > 100 µM; in the assay on OVCAR-3 ovarian, 34.7 µM; in the assay with UACC-62 melanoma, 56.7 µM; in the assay on COLO 205 colon it was 32.4 µM. Moreover, the TGI in the assay with UO-31 renal is 23.1 µM; in the assay with MDA-MB-231 breast it was 75.6 µM.
For `CCOP(=O)(CC(=O)C1=C(O)C(CCCCNC(=O)OC(C)(C)C)N(Cc2ccccc2)C1=O)OCC` (stereo not drawn), the TGI in the assay on CAKI-1 renal, in the assay with OVCAR-3 ovarian, in the assay with SK-MEL-28 melanoma, in the assay with UACC-62 melanoma, in the assay on HL-60(TB) leukemia and in the assay on COLO 205 colon was > 100 µM throughout. Also, the TGI in the assay with UO-31 renal is > 100 µM.
Turning to `CN(C)c1ccc(/C=N/NC(=O)c2cccc3ccccc23)c(Cl)c1`, the GI50 is 1020 nM in the assay on NCI/ADR-RES ovarian; 0.527 µM in the assay with CAKI-1 renal; 865 nM in the assay with OVCAR-3 ovarian; 3.5 µM in the assay on SK-MEL-28 melanoma; 0.978 µM with UACC-62 melanoma; 460 nM in the assay with HL-60(TB) leukemia. Besides, the GI50 in the assay with COLO 205 colon is 2.88 µM; in the assay with UO-31 renal it was 14.6 µM; in the assay with MDA-MB-231 breast, 11.5 µM. For the same compound, the TGI in the assay with NCI/ADR-RES ovarian was > 100 µM; in the assay on CAKI-1 renal, 8.04 µM; in the assay on OVCAR-3 ovarian it was 13.5 µM; in the assay with SK-MEL-28 melanoma it was > 100 µM; in the assay with UACC-62 melanoma it was > 100 µM; with HL-60(TB) leukemia, 3.64 µM. Further, the TGI with COLO 205 colon, with UO-31 renal and in the assay on MDA-MB-231 breast was > 100 µM each time.
For `Cc1cnc(SCCN2CCN(C)CC2)nc1-c1cc2ccccc2s1`, the TGI in the assay on CAKI-1 renal is 16.4 µM; in the assay on OVCAR-3 ovarian, 24.6 µM; with SK-MEL-28 melanoma it was 32.7 µM; in the assay on UACC-62 melanoma, 32.2 µM; with COLO 205 colon, 29.2 µM; in the assay with UO-31 renal, 20.8 µM.
For `Brc1ccc(C2SCc3nc4ccccc4n32)cc1` (stereo not drawn), the TGI stood at 43 µM with CAKI-1 renal; 17 µM with OVCAR-3 ovarian; 16.7 µM with SK-MEL-28 melanoma; 21.1 µM with UACC-62 melanoma; 12.4 µM with HL-60(TB) leukemia; 27.3 µM in the assay on COLO 205 colon. For the same compound, the TGI with UO-31 renal turned out to be 32 µM.
For the compound `O=C(CC1C(=O)Nc2ccccc2S1(=O)=O)Nc1cccc(Cl)c1` (stereo not drawn), the TGI with CAKI-1 renal was found to be 41.2 µM; with OVCAR-3 ovarian, 29.6 µM; with SK-MEL-28 melanoma it was 38.7 µM; in the assay on UACC-62 melanoma, 30.3 µM; in the assay with HL-60(TB) leukemia, 44.1 µM; in the assay on UO-31 renal it was 32.9 µM.
Turning to `Cc1ccc(S(=O)(=O)SCc2ccccc2)cc1`, the TGI in the assay with CAKI-1 renal is > 75.2 µM; in the assay with OVCAR-3 ovarian it was 45.5 µM; with SK-MEL-28 melanoma, > 100 µM; in the assay on UACC-62 melanoma it was > 67.9 µM; in the assay on HL-60(TB) leukemia it was 5.76 µM; in the assay on COLO 205 colon it was 27.4 µM. Besides, the TGI in the assay with UO-31 renal was > 100 µM.
Take `CCc1ncnc2cc(OCC3CO3)c(OC)cc12` (stereo not drawn): the TGI was > 100 µM in the assay with NCI/ADR-RES ovarian; > 100 µM with CAKI-1 renal; 21.7 µM with MDA-MB-435; > 100 µM in the assay with OVCAR-3 ovarian; 37.4 µM in the assay on SK-MEL-28 melanoma; 18.4 µM in the assay with UACC-62 melanoma. Further, the results for the TGI with COLO 205 colon, with UO-31 renal and in the assay on MDA-MB-231 breast were 21.8 µM, 18.4 µM and 60.9 µM, respectively.
Take `CN1C(=O)C(=CN(C)c2ccccc2)C(=O)N(C)C1=O`: the TGI in the assay with CAKI-1 renal, in the assay on OVCAR-3 ovarian, with SK-MEL-28 melanoma, in the assay on UACC-62 melanoma, with HL-60(TB) leukemia and in the assay on UO-31 renal was > 100 µM each time.
For `Oc1ccccc1C=Nc1ccccc1N=Cc1ccccc1O.[Cu+2]`, the GI50 in the assay with NCI/ADR-RES ovarian was 2250 nM; in the assay with CAKI-1 renal, 2.74 µM; in the assay with MDA-MB-435 it was 4.38 µM; with OVCAR-3 ovarian it was 3350 nM; in the assay on SK-MEL-28 melanoma, 10.5 µM; in the assay with UACC-62 melanoma it was 3.13 µM. Besides, the GI50 is 3.45 µM in the assay with COLO 205 colon, 3 µM with UO-31 renal and 6.08 µM in the assay on MDA-MB-231 breast. Also, the TGI with NCI/ADR-RES ovarian is 8.38 µM; in the assay with CAKI-1 renal, 12.4 µM; in the assay with MDA-MB-435 it was 17 µM; in the assay with OVCAR-3 ovarian it was 14.4 µM; in the assay with SK-MEL-28 melanoma, 23.2 µM; in the assay with UACC-62 melanoma, 14.2 µM. Besides, the TGI was found to be 14.5 µM with COLO 205 colon, 15.6 µM in the assay on UO-31 renal and 21.2 µM with MDA-MB-231 breast.
Take `COC(=O)C(=O)C(CC(=O)Nc1cccc(C(F)(F)F)c1)C(=O)OC` (stereo not drawn): the TGI in the assay with CAKI-1 renal, in the assay on SK-MEL-28 melanoma, in the assay with UACC-62 melanoma, in the assay with HL-60(TB) leukemia, with COLO 205 colon and in the assay on UO-31 renal was > 100 µM in each case.
Turning to `O=C(Nc1cccc(-n2cc(-c3ccncc3)c(-c3ccc(O)c(Cl)c3)n2)c1)c1ccc(Cl)c(Cl)c1`, the GI50 in the assay with NCI/ADR-RES ovarian was 5260 nM; with CAKI-1 renal, 3.38 µM; in the assay on MDA-MB-435, 6.06 µM; with SK-MEL-28 melanoma, 3.45 µM; in the assay on UACC-62 melanoma, 10.8 µM; in the assay with COLO 205 colon, 62.2 µM. Also, the values for the GI50 in the assay on UO-31 renal and in the assay with MDA-MB-231 breast were 4.5 µM and 1.52 µM, respectively. The TGI is 65.5 µM in the assay on NCI/ADR-RES ovarian; > 100 µM with CAKI-1 renal; 46.2 µM with MDA-MB-435; 19.4 µM in the assay on SK-MEL-28 melanoma; 47.6 µM in the assay with UACC-62 melanoma; > 100 µM in the assay on COLO 205 colon. For the same compound, the TGI was > 100 µM with UO-31 renal and 8.58 µM in the assay with MDA-MB-231 breast.
